Experimental data published in BindingDB's records for doi:10.1021/jm50001a017 (1985).

Assays:
[1] = target: Beta-2 adrenergic receptor (Mus musculus) (UniProt P18762); test: KD constant value was evaluated for the displacement of ICYP (iodocyanopindolol) binding
[2] = target: Beta-2 adrenergic receptor (Mus musculus) (UniProt P18762); test: KD constant value was evaluated for the displacement of ICYP (iodocyanopindolol) binding in […] lymphoma cell

Chain of Beta-2 adrenergic receptor (Mus musculus) (P18762 whole entry, looked up): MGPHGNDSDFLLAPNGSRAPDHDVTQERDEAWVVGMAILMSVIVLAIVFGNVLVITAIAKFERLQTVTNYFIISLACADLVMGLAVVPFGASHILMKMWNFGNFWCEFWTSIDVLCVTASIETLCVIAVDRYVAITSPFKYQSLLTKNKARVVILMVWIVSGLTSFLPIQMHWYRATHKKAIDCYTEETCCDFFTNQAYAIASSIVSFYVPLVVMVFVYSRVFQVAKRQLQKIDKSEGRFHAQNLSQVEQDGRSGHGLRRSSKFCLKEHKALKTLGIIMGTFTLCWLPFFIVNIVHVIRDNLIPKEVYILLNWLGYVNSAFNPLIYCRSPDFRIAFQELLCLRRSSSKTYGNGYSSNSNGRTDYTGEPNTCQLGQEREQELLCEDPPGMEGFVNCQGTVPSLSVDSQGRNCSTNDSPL

Cc1ccc(C(=O)NCCCCC(C)NCC(O)c2ccc(O)c(O)c2)cc1 (stereo not drawn)
Kd [1]: 320 nM

Cc1ccc(NC(=O)NCCCCC(C)NCC(O)c2ccc(O)c(O)c2)cc1 (stereo not drawn)
Kd [2]: 470 nM

CC(CCCCN)NCC(O)c1ccc(O)c(O)c1 (stereo not drawn)
Kd [1]: 10000 nM
